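Interpolation was linear, between the two tested concentrations surrounding the appropriate level; five concentrations were tested over 48 hours in 96-well plates. The concentration for 50% growth inhibition is given as GI50.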 Activity calls are given as the source filed them. Rule as the data show it: active = GI50 up to about 1.1 µM and inactive = higher.
Tests used:
Experiment in all cases: NCI tumour cell line growth inhibition, 48 h
[1] = system: A549
[2] = system: ACHN
[3] = system: COLO 205
[4] = system: HT-29
[5] = system: K562
[6] = system: LOX IMVI
[7] = system: M14
[8] = system: MOLT-4
[9] = system: NCI-H460
[10] = system: OVCAR-3
[11] = system: OVCAR-5
[12] = system: OVCAR-8
[13] = system: SK-MEL-28
[14] = system: SK-MEL-5
[15] = system: SNB-19
[16] = system: SNB-75
[17] = system: SW-620
[18] = system: TK-10
[19] = system: U-251
[20] = system: UO-31

Measured: GI50

CCCc1[nH]c(SCCCCCCCCSc2nc(-c3ccc(F)cc3)c(CCC)[nH]2)nc1-c1ccc(F)cc1
inactive: [1] 11.3 µM | [2] 54.1 µM | [3] 77.4 µM | [4] 62.7 µM | [5] 3.83 µM | [6] 10.3 µM | [7] 17.3 µM | [8] 4.65 µM | [9] 35.2 µM | [10] 1.94 µM | [11] 33 µM | [12] 9.84 µM | [13] 26.7 µM | [14] 4.68 µM | [15] 21.3 µM | [16] 2.11 µM | [17] > 100 µM | [18] 17.7 µM | [19] 18.7 µM | [20] 6.11 µM

CC/C=C(\C(=C/CC)[N+](=O)[O-])[N+](=O)[O-]
inactive: [1] 74.6 µM | [2] 18.7 µM | [3] 17.8 µM | [4] 16.4 µM | [5] 30.3 µM | [6] 17.5 µM | [7] 13.4 µM | [8] 42.7 µM | [9] 18 µM | [10] 16.1 µM | [11] 13.4 µM | [12] 21.4 µM | [13] 19.9 µM | [14] 31 µM | [15] > 100 µM | [16] > 100 µM | [17] 17.1 µM | [18] 18.1 µM | [19] 17.7 µM | [20] 18.9 µM

CCCCCCOP(=O)(OCCCCCC)C(NC(=O)OCC)(C(F)(F)F)C(F)(F)F
inactive: [1] 36.9 µM | [2] 28.8 µM | [3] 16.6 µM | [4] 51.4 µM | [5] 39.4 µM | [6] 24.6 µM | [7] 32 µM | [8] > 100 µM | [9] 30.3 µM | [10] 45.1 µM | [11] 43.8 µM | [12] 36.1 µM | [13] 41.9 µM | [14] 20 µM | [15] 39.4 µM | [16] 64.3 µM | [17] 33.3 µM | [18] 43.7 µM | [19] 36.8 µM | [20] 28.6 µM

COc1ccc(CCn2ccc(C)n2)c(OC)c1
inactive: [1] > 100 µM | [2] > 100 µM | [3] > 100 µM | [4] > 100 µM | [5] > 100 µM | [6] > 100 µM | [7] > 100 µM | [8] > 100 µM | [9] > 100 µM | [10] > 100 µM | [11] > 100 µM | [12] > 100 µM | [13] > 100 µM | [14] > 100 µM | [15] > 100 µM | [16] 34 µM | [17] > 100 µM | [18] > 100 µM | [19] > 100 µM | [20] 46.6 µM

CSCCC(NC(=O)OCc1ccccc1)NC(=O)OCc1ccccc1
inactive: [1] > 100 µM | [2] > 100 µM | [3] > 100 µM | [4] > 100 µM | [5] > 100 µM | [6] > 100 µM | [7] > 100 µM | [8] > 100 µM | [9] > 100 µM | [10] > 100 µM | [11] > 100 µM | [12] > 100 µM | [13] > 100 µM | [14] > 100 µM | [15] > 100 µM | [16] > 100 µM | [17] > 100 µM | [18] > 100 µM | [19] > 100 µM | [20] > 100 µM

COc1cc(C=O)cc(/C=N/c2ccc(S(N)(=O)=O)cc2)c1O
inactive: [1] 44.1 µM | [2] 3.82 µM | [3] 16.6 µM | [4] 13.7 µM | [5] 47 µM | [6] 10.9 µM | [7] 3.92 µM | [8] 18 µM | [9] 26.2 µM | [10] 26.1 µM | [11] 26.7 µM | [12] 6.21 µM | [13] 4.36 µM | [14] 4.91 µM | [15] 11.3 µM | [16] 23.9 µM | [17] 24.4 µM | [18] 31.7 µM | [19] 5.36 µM | [20] 5.51 µM

From ChEMBL document CHEMBL1201862, “PubChem BioAssay data set” (2004)
